Results from PMC9374744, “Structural basis for receptor selectivity and inverse agonism in S1P5 receptors” (Nature Communications, 2022).
Several values for one entry are separate records, joined by “and”; a condition that tells them apart may be missing. Equal values may be shown once.

Tests used:
human S1P5 K24A mutant = human S1P5 K24A mutant (Homo sapiens, UniProt Q9H228, K24A); experiment: BRET-based cAMP Gi signaling assay, S1P5 K24A; conditions: inverse agonism
human S1P5 K24Q mutant = human S1P5 K24Q mutant (Homo sapiens, UniProt Q9H228, K24Q); experiment: BRET-based cAMP Gi signaling assay, S1P5 K24Q; conditions: inverse agonism
Sequence of human S1P5 K24Q mutant (Q9H228 whole entry K24Q): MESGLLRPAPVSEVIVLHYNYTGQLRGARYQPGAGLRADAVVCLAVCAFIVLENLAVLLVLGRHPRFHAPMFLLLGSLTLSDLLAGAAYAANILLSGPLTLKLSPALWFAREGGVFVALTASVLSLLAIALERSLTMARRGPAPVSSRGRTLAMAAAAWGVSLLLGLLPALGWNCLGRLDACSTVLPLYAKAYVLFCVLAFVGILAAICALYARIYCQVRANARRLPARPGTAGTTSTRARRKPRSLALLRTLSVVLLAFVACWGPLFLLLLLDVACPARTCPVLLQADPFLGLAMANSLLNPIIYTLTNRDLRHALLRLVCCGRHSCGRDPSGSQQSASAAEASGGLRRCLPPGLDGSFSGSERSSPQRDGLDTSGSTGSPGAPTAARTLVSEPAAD

human S1P5 K24R mutant = human S1P5 K24R mutant (Homo sapiens, UniProt Q9H228, K24R); experiment: BRET-based cAMP Gi signaling assay, S1P5 K24R; conditions: for BRET ratio, Supplementary Figure 6b: replicate values, listed as ONO; for EC50: inverse agonism
Sequence of human S1P5 K24R mutant (Q9H228 whole entry K24R): as the sequence (Q9H228 whole entry K24Q) above, with Q24R counted along it

human S1P5 C43F mutant = human S1P5 C43F mutant (Homo sapiens, UniProt Q9H228, C43F); experiment: BRET-based cAMP Gi signaling assay, S1P5 C43F; conditions: inverse agonism
Sequence of human S1P5 C43F mutant (Q9H228 whole entry C43F): as the sequence (Q9H228 whole entry K24Q) above, with Q24K, C43F counted along it

human S1P5 T79A mutant = human S1P5 T79A mutant (Homo sapiens, UniProt Q9H228, T79A); experiment: BRET-based cAMP Gi signaling assay, S1P5 T79A; conditions: for EC50: inverse agonism; for BRET signal, raw replicates: Suppl. Fig. 6d, listed as ONO
Sequence of human S1P5 T79A mutant (Q9H228 whole entry T79A): as the sequence (Q9H228 whole entry K24Q) above, with Q24K, T79A counted along it

human S1P5 Y89A mutant = human S1P5 Y89A mutant (Homo sapiens, UniProt Q9H228, Y89A); experiment: BRET-based cAMP Gi signaling assay, S1P5 Y89A; conditions: inverse agonism
Sequence of human S1P5 Y89A mutant (Q9H228 whole entry Y89A): as the sequence (Q9H228 whole entry K24Q) above, with Q24K, Y89A counted along it

human S1P5 Y89W mutant = human S1P5 Y89W mutant (Homo sapiens, UniProt Q9H228, Y89W); experiment: BRET-based cAMP Gi signaling assay, S1P5 Y89W; conditions: inverse agonism
Sequence of human S1P5 Y89W mutant (Q9H228 whole entry Y89W): as the sequence (Q9H228 whole entry K24Q) above, with Q24K, Y89W counted along it

human S1P5 N92A mutant = human S1P5 N92A mutant (Homo sapiens, UniProt Q9H228, N92A); experiment: BRET-based cAMP Gi signaling assay, S1P5 N92A; conditions: inverse agonism
Sequence of human S1P5 N92A mutant (Q9H228 whole entry N92A): as the sequence (Q9H228 whole entry K24Q) above, with Q24K, N92A counted along it

human S1P5 N92C mutant = human S1P5 N92C mutant (Homo sapiens, UniProt Q9H228, N92C); experiment: BRET-based cAMP Gi signaling assay, S1P5 N92C; conditions: inverse agonism
Sequence of human S1P5 N92C mutant (Q9H228 whole entry N92C): as the sequence (Q9H228 whole entry K24Q) above, with Q24K, N92C counted along it

human S1P5 E112A mutant = human S1P5 E112A mutant (Homo sapiens, UniProt Q9H228, E112A); experiment: BRET-based cAMP Gi signaling assay, S1P5 E112A; conditions: inverse agonism
Sequence of human S1P5 E112A mutant (Q9H228 whole entry E112A): as the sequence (Q9H228 whole entry K24Q) above, with Q24K, E112A counted along it

human S1P5 E112Q mutant = human S1P5 E112Q mutant (Homo sapiens, UniProt Q9H228, E112Q); experiment: BRET-based cAMP Gi signaling assay, S1P5 E112Q; conditions: inverse agonism, Figure 2c source data, N/R = no response
Sequence of human S1P5 E112Q mutant (Q9H228 whole entry E112Q): as the sequence (Q9H228 whole entry K24Q) above, with Q24K, E112Q counted along it

[1] = Figure 2c source data, N/R = no response

Sequence of human S1P5 K24A mutant (Q9H228 whole entry K24A): as the sequence (Q9H228 whole entry K24Q) above, with Q24A counted along it

O=C(O)CCCN1CCc2cccc(OCCc3cccc4ccccc34)c2CC1 [ONO-5430608, 4-{6-[2-(1-naphthyl)ethoxy]-1,2,4,5-tetrahydro-3H-3-benzazepin-3-yl} butanoic acid]
ONO-5430608 pEC50, single experiments #1-#3 (human S1P5 K24A mutant; [1]): N/R
ONO, pEC50, M (human S1P5 K24A mutant; n=3, N/R = no response): N/R
ONO-5430608 pEC50, single experiments #1-#3 (human S1P5 K24Q mutant; [1]): N/R
ONO, pEC50, M (human S1P5 K24Q mutant; n=3, N/R = no response): N/R
BRET ratio, Supplementary Figure 6b (human S1P5 K24R mutant; K24R, [ONO] 0.169351 nM): 0.7619 and 0.7605 and 0.7627 and 0.7643 and 0.765 and 0.7649 and 0.7612 and 0.7652 and 0.7621
BRET ratio, Supplementary Figure 6b (human S1P5 K24R mutant; K24R, [ONO] 0.508053 nM): 0.7573 and 0.7607 and 0.7624 and 0.7643 and 0.7627 and 0.7635 and 0.7628 and 0.761 and 0.7617
BRET ratio, Supplementary Figure 6b (human S1P5 K24R mutant; K24R, [ONO] 1.52416 nM): 0.7542 and 0.7548 and 0.7577 and 0.7568 (2×) and 0.7598 and 0.7585 and 0.7546 and 0.7523
BRET ratio, Supplementary Figure 6b (human S1P5 K24R mutant; K24R, [ONO] 4.57247 nM): 0.7493 and 0.7475 and 0.7463 and 0.7487 and 0.7486 and 0.7479 and 0.7433 and 0.7453 and 0.7422
BRET ratio, Supplementary Figure 6b (human S1P5 K24R mutant; K24R, [ONO] 13.7174 nM): 0.7349 and 0.7366 and 0.7407 and 0.7346 and 0.7367 and 0.7337 and 0.7316 and 0.7355 and 0.7298
EC50 (human S1P5 K24R mutant; ONO, pEC50, M, K24R, mean ± SD, n=3): 4.57 nM
EC50 (human S1P5 K24R mutant; ONO-5430608 pEC50, single experiments #1-#3, K24R, Figure 2c source data): 4.65 nM and 4.87 nM and 4.1 nM
EC50 (human S1P5 C43F mutant; ONO, pEC50, M, C43F, mean ± SD, n=3): 4.47 nM
EC50 (human S1P5 C43F mutant; ONO-5430608 pEC50, single experiments #1-#3, C43F, Figure 2c source data): 3.91 nM and 4.49 nM and 4.96 nM
EC50 (human S1P5 T79A mutant; ONO, pEC50, M, T79A, mean ± SD, n=3): 5.13 nM
EC50 (human S1P5 T79A mutant; ONO-5430608 pEC50, single experiments #1-#3, T79A, Figure 2c source data): 3.81 nM and 5.96 nM and 5.8 nM
BRET signal, raw replicates (human S1P5 T79A mutant; [ONO] 0.169351 nM, T79A): 0.7648 and 0.7694 and 0.7618 (2×) and 0.7719 and 0.7737 and 0.7678 and 0.7602 and 0.7581
BRET signal, raw replicates (human S1P5 T79A mutant; [ONO] 0.508053 nM, T79A): 0.7658 and 0.7637 (2×) and 0.7584 and 0.7703 and 0.7711 and 0.7719 and 0.7599 and 0.7561
BRET signal, raw replicates (human S1P5 T79A mutant; [ONO] 1.52416 nM, T79A): 0.7571 and 0.7588 and 0.7577 and 0.7674 and 0.7689 and 0.7688 and 0.7557 and 0.7543 and 0.7567
BRET signal, raw replicates (human S1P5 T79A mutant; [ONO] 4.57247 nM, T79A): 0.7445 and 0.7467 and 0.7472 (2×) and 0.7504 and 0.7523 and 0.7521 and 0.7458 and 0.7451
BRET signal, raw replicates (human S1P5 T79A mutant; [ONO] 13.7174 nM, T79A): 0.7344 and 0.7321 and 0.7375 and 0.7326 and 0.7336 and 0.7328 and 0.7266 and 0.7286 and 0.7299
BRET signal, raw replicates (human S1P5 T79A mutant; [ONO] 41.1523 nM, T79A): 0.7277 and 0.7202 and 0.7265 and 0.7247 and 0.7224 and 0.7225 and 0.7195 and 0.7262 and 0.7173
BRET signal, raw replicates (human S1P5 T79A mutant; [ONO] 123.457 nM, T79A): 0.7246 and 0.7211 and 0.7132 and 0.7206 and 0.7203 and 0.7177 and 0.7146 and 0.7143 and 0.7168
BRET signal, raw replicates (human S1P5 T79A mutant; [ONO] 370.37 nM, T79A): 0.7198 and 0.7165 and 0.7203 and 0.7175 and 0.72 and 0.7188 and 0.7152 and 0.7138 and 0.7182
BRET signal, raw replicates (human S1P5 T79A mutant; [ONO] 1111.11 nM, T79A): 0.7229 and 0.7217 and 0.7211 and 0.7178 and 0.7185 and 0.7189 and 0.7126 and 0.7148 and 0.7145
BRET signal, raw replicates (human S1P5 T79A mutant; [ONO] 3333.33 nM, T79A): 0.7168 and 0.7147 and 0.7207 and 0.7195 and 0.7142 and 0.7166 and 0.7162 and 0.7151 and 0.7155
ONO-5430608 pEC50, single experiments #1-#3 (human S1P5 Y89A mutant; [1]): N/R
ONO, pEC50, M (human S1P5 Y89A mutant; n=3, N/R = no response): N/R and abolishes the functional response
EC50 (human S1P5 Y89W mutant; ONO, pEC50, M, Y89W, mean ± SD, n=3): 2.95 nM
EC50 (human S1P5 Y89W mutant; ONO-5430608 pEC50, single experiments #1-#3, Y89W, Figure 2c source data): 3.01 nM and 1.99 nM and 4.31 nM
ONO-5430608 pEC50, single experiments #1-#3 (human S1P5 N92A mutant; [1]): N/R
ONO, pEC50, M (human S1P5 N92A mutant; n=3, N/R = no response): N/R
ONO-5430608 pEC50, single experiments #1-#3 (human S1P5 N92C mutant; [1]): N/R
ONO, pEC50, M (human S1P5 N92C mutant; n=3, N/R = no response): N/R
ONO-5430608 pEC50, single experiments #1-#3 (human S1P5 E112A mutant; [1]): N/R
ONO, pEC50, M (human S1P5 E112A mutant; n=3, N/R = no response): N/R
ONO-5430608 pEC50, single experiments #1-#3 (human S1P5 E112Q mutant): N/R
